# Measurements taken from patent US12692269B2, “Therapeutic compounds” (Genentech, Inc., priority 2019, dated 2026).
# Legend:
# Assay type in all cases: binding
# [1] = molecular target: TEAD1 TAZ (amino acids 13-57) (Homo sapiens, UniProt P28347); assay: TEAD1-TAZ HTRF (TR-FRET) protein-protein interaction assay; details: for TEAD1 TAZ HTRF combined: Max % Inhibition: TEAD1, TAZ peptide; for EC50: TEAD1-TAZ HTRF, TR-FRET 665 nm/615 nm, read-out: TEAD1 TAZ HTRF combined: EC50
# Method in brief: (§1)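 TEAD YBD (aa 217-447, His-tag) + Eu anti-His; cpd 30 min; + biotin-YAP 50-100 or biotin-TAZ 13-57 / SA-XL665; 60 min RT; TR-FRET 665/615; 4-parameter IC50/EC50.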
# [2] = molecular target: TEAD1 YAP50-100 (Homo sapiens, UniProt P28347); assay: TEAD1-YAP HTRF (TR-FRET) protein-protein interaction assay; details: TEAD1, YAP peptide 50-100, HTRF; for EC50: read-out: TEAD1 YAP50-100 HTRF combined: EC50
# Chain of TEAD1 YAP50-100 (P28347 167-426 limits assumed): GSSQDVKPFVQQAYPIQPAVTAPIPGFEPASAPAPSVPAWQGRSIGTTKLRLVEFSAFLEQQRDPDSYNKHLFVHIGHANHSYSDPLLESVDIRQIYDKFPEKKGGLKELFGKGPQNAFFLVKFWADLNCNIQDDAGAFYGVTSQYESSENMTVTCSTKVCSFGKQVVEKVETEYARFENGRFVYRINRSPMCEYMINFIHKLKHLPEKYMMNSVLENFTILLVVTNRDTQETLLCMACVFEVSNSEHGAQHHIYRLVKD
# Method in brief: as §1
# [3] = molecular target: TEAD4 YAP50-100 (Homo sapiens, UniProt Q15561); assay: TEAD4-YAP HTRF (TR-FRET) protein-protein interaction assay; details: TEAD4, YAP peptide 50-100, HTRF; for EC50: read-out: TEAD4 YAP50-100 HTRF combined: EC50
# Chain of TEAD4 YAP50-100 (Q15561 217-434 limits assumed): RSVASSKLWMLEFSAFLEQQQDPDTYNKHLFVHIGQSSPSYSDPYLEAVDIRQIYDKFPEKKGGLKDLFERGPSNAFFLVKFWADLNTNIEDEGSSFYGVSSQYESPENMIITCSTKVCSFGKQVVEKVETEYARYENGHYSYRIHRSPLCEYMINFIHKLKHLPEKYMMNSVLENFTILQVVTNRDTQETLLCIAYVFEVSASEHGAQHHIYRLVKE
# Method in brief: as §1
# [4] = molecular target: TEAD4 TAZ (amino acids 13-57) (Homo sapiens, UniProt Q15561); assay: TEAD4-TAZ HTRF (TR-FRET) protein-protein interaction assay; details: for TEAD4 TAZ HTRF combined: Max % Inhibition: TEAD4, TAZ peptide; for EC50: TEAD4-TAZ HTRF, TR-FRET 665 nm/615 nm, read-out: TEAD4 TAZ HTRF combined: EC50
# Chain of TEAD4 TAZ (amino acids 13-57) (Q15561 217-434 limits assumed): as above
# Method in brief: as §1
# [5] = molecular target: TEAD2 TAZ (amino acids 13-57) (Homo sapiens, UniProt Q15562); assay: TEAD2-TAZ HTRF (TR-FRET) protein-protein interaction assay; details: for TEAD2 TAZ HTRF combined: Max % Inhibition: TEAD2, TAZ peptide; for EC50: TEAD2-TAZ HTRF, TR-FRET 665 nm/615 nm, read-out: TEAD2 TAZ HTRF combined: EC50
# Chain of TEAD2 TAZ (amino acids 13-57) (Q15562 217-447): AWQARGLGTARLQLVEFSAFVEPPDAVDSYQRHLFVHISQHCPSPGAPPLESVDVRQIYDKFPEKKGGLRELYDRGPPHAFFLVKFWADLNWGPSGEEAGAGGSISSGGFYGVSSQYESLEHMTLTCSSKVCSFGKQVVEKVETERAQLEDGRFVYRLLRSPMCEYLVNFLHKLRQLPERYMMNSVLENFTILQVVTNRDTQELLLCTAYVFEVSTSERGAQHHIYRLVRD
# Method in brief: as §1
# [6] = molecular target: TEAD2 YAP50-100 (Homo sapiens, UniProt Q15562); assay: TEAD2-YAP HTRF (TR-FRET) protein-protein interaction assay; details: TEAD2, YAP peptide 50-100, HTRF; for EC50: read-out: TEAD2 YAP50-100 HTRF combined: EC50
# Chain of TEAD2 YAP50-100 (Q15562 217-447): as above
# Method in brief: as §1
# [7] = molecular target: TEAD3 TAZ (amino acids 13-57) (Homo sapiens, UniProt Q99594); assay: TEAD3-TAZ HTRF (TR-FRET) protein-protein interaction assay; details: for TEAD3 TAZ HTRF combined: Max % Inhibition: TEAD3, TAZ peptide; for EC50: TEAD3-TAZ HTRF, TR-FRET 665 nm/615 nm, read-out: TEAD3 TAZ HTRF combined: EC50
# Chain of TEAD3 TAZ (amino acids 13-57) (Q99594 173-435 limits assumed): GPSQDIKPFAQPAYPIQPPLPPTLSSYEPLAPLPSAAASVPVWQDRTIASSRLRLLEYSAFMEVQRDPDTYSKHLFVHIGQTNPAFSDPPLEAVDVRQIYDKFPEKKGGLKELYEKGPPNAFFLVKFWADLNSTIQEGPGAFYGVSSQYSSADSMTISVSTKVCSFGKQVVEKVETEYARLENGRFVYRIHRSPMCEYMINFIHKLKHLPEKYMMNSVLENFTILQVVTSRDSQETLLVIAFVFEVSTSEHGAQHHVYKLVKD
# Method in brief: as §1
# [8] = molecular target: TEAD3 YAP50-100 (Homo sapiens, UniProt Q99594); assay: TEAD3-YAP HTRF (TR-FRET) protein-protein interaction assay; details: TEAD3, YAP peptide 50-100, HTRF; for EC50: read-out: TEAD3 YAP50-100 HTRF combined: EC50
# Chain of TEAD3 YAP50-100 (Q99594 173-435 limits assumed): as above
# Method in brief: as §1
# Chain of TEAD1 TAZ (amino acids 13-57) (P28347 167-426 limits assumed): as the sequence (P28347 167-426 limits assumed) above
Structure (SMILES),TEAD1 TAZ HTRF combined: Max % Inhibition [1],EC50 [1],TEAD1 YAP50-100 HTRF combined: Max % Inhibition [2],EC50 [2],TEAD4 YAP50-100 HTRF combined: Max % Inhibition [3],EC50 [3],TEAD4 TAZ HTRF combined: Max % Inhibition [4],EC50 [4],TEAD2 TAZ HTRF combined: Max % Inhibition [5],EC50 [5],TEAD2 YAP50-100 HTRF combined: Max % Inhibition [6],EC50 [6],TEAD3 TAZ HTRF combined: Max % Inhibition [7],EC50 [7],TEAD3 YAP50-100 HTRF combined: Max % Inhibition [8],EC50 [8]
"COc1nccnc1-c1nn2c(=O)cc(-c3ccc(C4CCCCC4)cc3)[nH]c2c1C(=O)N1CC(CF)C1 [Compound 13, 5-(4-Cyclohexylphenyl)-3-(3-(fluoromethyl)azetidine-1-carbonyl)-2-(3-methoxypyrazin-2-yl)pyrazolo[1,5-a]pyrimidin-7(4H)-one]",66.5%,100 nM,74.0%,80 nM,50.0%,210 nM,40.0%,130 nM,60.0%,20 nM,65.0%,20 nM,56.5%,180 nM,71.5%,180 nM
"COc1ccnc(-c2nn3c(=O)cc(-c4ccc(C5CCCCC5)cc4)[nH]c3c2C(=O)N2CC(CF)C2)n1 [Compound 14, 5-(4-Cyclohexylphenyl)-3-(3-(fluoromethyl)azetidine-1-carbonyl)-2-(4-methoxypyrimidin-2-yl)pyrazolo[1,5-a]pyrimidin-7(4H)-one]",74.0%,60 nM,73.0%,30 nM,50.0%,60 nM,53.5%,50 nM,67.5%,10 nM,62.5%,10 nM,52.5%,80 nM,61.0%,90 nM
"O=C(c1c(-c2ncccn2)nn2c(=O)cc(-c3ccc(C4CCCCC4)cc3)[nH]c12)N1CC(CF)C1 [Compound 15, 5-(4-Cyclohexylphenyl)-3-(3-(fluoromethyl)azetidine-1-carbonyl)-2-(pyrimidin-2-yl)pyrazolo[1,5-a]pyrimidin-7(4H)-one]",64.0%,40 nM,74.0%,30 nM,50.5%,30 nM,49.0%,20 nM,62.0%,10 nM,64.8%,10 nM,55.8%,70 nM,64.0%,70 nM
"O=C(c1c(-c2ccccn2)nn2c(=O)cc(-c3ccc(C4CCCCC4)cc3)[nH]c12)N1CC(CF)C1 [Compound 16, 5-(4-Cyclohexylphenyl)-3-(3-(fluoromethyl)azetidine-1-carbonyl)-2-(pyridin-2-yl)pyrazolo[1,5-a]pyrimidin-7(4H)-one]",59.5%,50 nM,70.0%,60 nM,40.5%,20 nM,38.0%,20 nM,53.5%,10 nM,57.5%,10 nM,44.5%,80 nM,55.0%,80 nM
"O=C(c1c(-c2cnccn2)nn2c(=O)cc(-c3ccc(C4CCCCC4)cc3)[nH]c12)N1CC(CF)C1 [Compound 17, 5-(4-Cyclohexylphenyl)-3-(3-(fluoromethyl)azetidine-1-carbonyl)-2-(pyrazin-2-yl)pyrazolo[1,5-a]pyrimidin-7(4H)-one]",60.6%,40 nM,69.0%,30 nM,42.0%,40 nM,34.9%,30 nM,60.9%,10 nM,61.6%,10 nM,53.9%,60 nM,63.3%,60 nM
"Cc1ccnc(-c2nn3c(=O)cc(-c4ccc(C5CCCCC5)cc4)[nH]c3c2C(=O)N2CC(CF)C2)c1 [Compound 18, 5-(4-Cyclohexylphenyl)-3-(3-(fluoromethyl)azetidine-1-carbonyl)-2-(4-methylpvridin-2-yl)pyrazolo[1,5-a]pyrimidin-7(4H)-one]",67.0%,60 nM,73.0%,50 nM,47.0%,20 nM,49.0%,20 nM,55.5%,10 nM,58.5%,10 nM,43.0%,90 nM,54.5%,90 nM
"O=C(c1c(-c2ncco2)nn2c(=O)cc(-c3ccc(C4CCCCC4)cc3)[nH]c12)N1CC(CF)C1 [Compound 19, 5-(4-Cyclohexylphenyl)-3-(3-(fluoromethyl)azetidine-1-carbonyl)-2-(oxazol-2-yl)pyrazolo[1,5-a]pyrimidin-7(4H)-one]",59.5%,70 nM,69.0%,40 nM,46.0%,60 nM,38.5%,50 nM,63.5%,10 nM,67.5%,10 nM,53.0%,60 nM,60.0%,60 nM
